Values joined by “and” are separate entries in the source; they are usually repeats but may differ in a detail not shown here. Equal entries are not always repeated. Where two headings read alike, the source gives them in different places.
What was measured:
GLUT9 [1] = test: GLUT9 protein expression in HK-2 cells (Western blot); conditions: for GLUT (GLUT9) / β (reference protein) ratio / GLUT (GLUT9) protein expression, band value: HK-2, replicates 1-3; for GLUT9 protein expression in HK-2 cells: HUA cell model, gigantol 25, 50, 100 µmol/L, especially high-dose (p < 0.001), vs model
OAT3 = OAT3 protein expression in kidney of HUA mice (Western blot); conditions: vs model group
TNF-α = TNF-α level in serum and kidney of HUA mice (ELISA); format: in vivo; conditions: HUA mice treated with gigantol; vs model group; p < 0.01
Description: (§1) Blood obtained from mice in each group was centrifuged at 3,000 r/min for 15 min in a low-temperature high-speed centrifuge. Then, the serum was separated, and the levels of UA, CRE, and BUN in the serum were measured by the kits. The levels of TNF-α, IL-1β, IL-6, and NLRP3 in serum were detected by ELISA kits. Liver and kidney tissues were homogenized by adding ice-cold saline, and homogenates were centrifuged at 12,000 r/min for 10 min. XOD activity in the supernatant of the liver tissues was measured, and the levels of TNF-α, IL-1β, IL-6, and NLRP3 in the supernatant of the kidney tissues were measures by ELISA kits.

NLRP3 = NLRP3 content in serum and kidney of HUA mice (ELISA); format: in vivo; conditions: gigantol low, medium, high dose intragastric, vs model group
Description: as §1

GLUT9 [2] = test: GLUT9 protein expression in kidney of HUA mice (Western blot); format: in vivo; conditions: gigantol, dose-dependent, vs model group
XOD = target: T1, XOD (Mus musculus, UniProt Q00519); format: in vivo; conditions: HUA mice, vs model group
T1 construct: XOD activity in the supernatant of the liver tissues was measured; from tissue; host or cells: liver of male KM mice (hyperuricemia model, potassium oxonate)
T1 sequence (Q00519 whole entry): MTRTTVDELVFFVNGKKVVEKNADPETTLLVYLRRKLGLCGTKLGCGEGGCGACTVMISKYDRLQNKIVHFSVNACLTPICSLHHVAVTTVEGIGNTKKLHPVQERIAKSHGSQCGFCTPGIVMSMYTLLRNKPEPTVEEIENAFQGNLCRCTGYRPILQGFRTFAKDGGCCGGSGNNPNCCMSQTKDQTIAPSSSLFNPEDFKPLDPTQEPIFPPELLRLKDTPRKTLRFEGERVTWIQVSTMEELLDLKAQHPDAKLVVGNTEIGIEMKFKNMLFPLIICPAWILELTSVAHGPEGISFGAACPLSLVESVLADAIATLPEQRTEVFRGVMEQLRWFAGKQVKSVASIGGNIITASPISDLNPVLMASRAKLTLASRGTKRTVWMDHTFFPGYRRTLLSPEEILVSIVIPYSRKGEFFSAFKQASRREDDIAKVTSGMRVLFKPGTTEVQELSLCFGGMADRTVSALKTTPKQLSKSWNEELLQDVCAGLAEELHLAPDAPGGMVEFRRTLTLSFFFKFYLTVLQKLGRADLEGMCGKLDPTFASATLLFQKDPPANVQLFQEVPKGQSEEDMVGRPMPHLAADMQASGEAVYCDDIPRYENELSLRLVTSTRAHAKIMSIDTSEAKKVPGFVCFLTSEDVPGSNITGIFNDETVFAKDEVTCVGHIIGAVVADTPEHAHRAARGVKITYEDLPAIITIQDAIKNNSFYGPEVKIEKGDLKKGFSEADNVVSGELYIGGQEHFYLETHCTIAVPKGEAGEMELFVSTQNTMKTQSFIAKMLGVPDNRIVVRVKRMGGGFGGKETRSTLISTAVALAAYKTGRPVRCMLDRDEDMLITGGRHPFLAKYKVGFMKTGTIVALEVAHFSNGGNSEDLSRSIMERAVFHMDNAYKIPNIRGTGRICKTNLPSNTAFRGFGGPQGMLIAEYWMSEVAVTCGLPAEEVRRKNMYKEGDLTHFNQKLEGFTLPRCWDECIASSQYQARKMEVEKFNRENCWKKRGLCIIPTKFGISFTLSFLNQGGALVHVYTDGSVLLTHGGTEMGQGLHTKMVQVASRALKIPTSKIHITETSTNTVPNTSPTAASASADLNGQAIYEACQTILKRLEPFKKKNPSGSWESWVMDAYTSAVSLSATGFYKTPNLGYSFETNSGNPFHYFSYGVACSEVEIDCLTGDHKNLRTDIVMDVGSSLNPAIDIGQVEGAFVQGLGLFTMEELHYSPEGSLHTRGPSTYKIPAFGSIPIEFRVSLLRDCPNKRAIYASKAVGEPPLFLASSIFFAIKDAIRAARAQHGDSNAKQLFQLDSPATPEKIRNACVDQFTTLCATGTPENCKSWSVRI

OAT1 = OAT1 protein expression in HK-2 cells (Western blot); conditions: for OAT1 / β (reference protein) ratio / OAT1 protein expression, band value: HK-2, replicates 1-3
HK-2 cells = test: UA level in HK-2 HUA cell model; format: cell-based, human; conditions: adenosine + XOD induced; gigantol 25, 50, 100 μmol/L; p < 0.001

Substance: 5-[2-(3-hydroxy-5-methoxyphenyl) ethyl]-2-methoxyphenol [gigantol]
- GLUT (GLUT9) / β (reference protein) ratio (GLUT9 [1]; 中 = gigantol 50 µmol/L): 0.824 and 0.7786 and 0.7289
- GLUT (GLUT9) protein expression, band value (GLUT9 [1]; 中 = gigantol 50 µmol/L): 143.264 and 144.598 and 138.372
- GLUT (GLUT9) / β (reference protein) ratio (GLUT9 [1]; 低 = gigantol 25 µmol/L): 0.9479 and 0.8166 and 0.8642
- GLUT (GLUT9) protein expression, band value (GLUT9 [1]; 低 = gigantol 25 µmol/L): 156.942 and 153.38 and 155.361
- GLUT (GLUT9) / β (reference protein) ratio (GLUT9 [1]; 高 = gigantol 100 µmol/L): 0.7095 and 0.5035 and 0.629
- GLUT (GLUT9) protein expression, band value (GLUT9 [1]; 高 = gigantol 100 µmol/L): 132.094 and 98.555 and 122.472
- GLUT9 protein expression in HK-2 cells (GLUT9 [1]): significantly decreased
- GLUT9 protein expression in HK-2 cells (GLUT9 [1]; listed as Gigantol): decreased
- OAT3 protein expression in kidney (OAT3; gigantol low-dose group (5 mg/kg)): not in the low-dose group
- OAT3 protein expression in kidney (OAT3; gigantol medium-dose and high-dose groups (10, 20 mg/kg), p < 0.05): increased
- renal TNF-α level (TNF-α): significantly lower
- serum TNF-α level (TNF-α): significantly lower
- NLRP3 level in kidney (NLRP3): decreased
- NLRP3 level in serum (NLRP3): decreased
- GLUT9 protein expression in kidney (GLUT9 [2]): significantly reduced
- XOD activity in mice liver (XOD; gigantol high dose (20 mg/kg), p < 0.001): inhibited
- XOD activity in mice liver (XOD; gigantol low and middle doses (5, 10 mg/kg), p > 0.05): no significant difference
- OAT1 / β (reference protein) ratio (OAT1; 中 = gigantol 50 µmol/L): 1.086 and 1.108 and 1.097
- OAT1 protein expression, band value (OAT1; 中 = gigantol 50 µmol/L): 188.76 and 205.851 and 208.271
- OAT1 / β (reference protein) ratio (OAT1; 低 = gigantol 25 µmol/L): 1.029 and 1.058 and 0.975
- OAT1 protein expression, band value (OAT1; 低 = gigantol 25 µmol/L): 170.32 and 198.69 and 175.271
- OAT1 / β (reference protein) ratio (OAT1; 高 = gigantol 100 µmol/L): 1.06 and 1.0745 and 1.075
- OAT1 protein expression, band value (OAT1; 高 = gigantol 100 µmol/L): 197.371 and 210.308 and 209.271
- OAT1 protein level in HK-2 cells (OAT1; HUA cell model, 50 and 100 µmol/L, vs model group): significantly increased
- OAT1 protein expression in HK-2 cells (OAT1; HUA cell model, gigantol 25, 50, 100 µmol/L, dose-dependent): increase
- UA level in HK-2 cells (HK-2 cells): suppressed
